Tested on: Hypertensive Activity of Angiotensin I
Assay: Effect against hypertensive activity of angiotensin I in anesthetized-prepared rats (oral administration)
Type: in vivo, Male rats (Sprague-Dawley)
Conditions: rat, 13.8 μM/kg orally, angiotensin I 300 ng/kg i.v., corrected for angiotensin II response; for Percent Inhibition (%) against Hypertensive Reaction by Angiotensin I After 20 min.: 20 min after administration; for Percent Inhibition (%) against Hypertensive Reaction by Angiotensin I After 60 min.: 60 min after administration; for Percent Inhibition (%) against Hypertensive Reaction by Angiotensin I After 120 min.: 120 min after administration
Experimental: Effect of Present Compounds against Hypertensive Activity of Angiotensin I Male rats (Sprague-Dawley) weighing 250 g to 350 g which were fed under free access to drinking water and feeds were used as experimental animals. The rats were anesthetized with intraperitoneal administration of pentobarbital sodium (50 mg/kg) on the day before the test day and a polyethylene tube was inserted into each of the femoral artery for measurement of blood pressure and the femoral vein for injection of angiotensin I and II, and then the tubes were fixed. […] Then, 13.8 μM/kg of the compound of this invention was administered orally as an aqueous solution or an aqueous gum arabic suspension, and 20, 60 and 120 minutes after the administration, angiotensin I and II were injected repeatedly to trace hypertensive reactions. In calculating the percent inhibition to the hypertensive activity of angiotensin I, the percent inhibitory value was corrected based on the variation with time in the hypertensive reaction by angiotensin II.

SMILES	Percent Inhibition (%) against Hypertensive Reaction by Angiotensin I After 20 min.	Percent Inhibition (%) against Hypertensive Reaction by Angiotensin I After 60 min.	Percent Inhibition (%) against Hypertensive Reaction by Angiotensin I After 120 min.
Br.CCOC(=O)[C@H](CCc1ccccc1)N[C@@H](C)C(=O)N(CC(=O)N[C@@H](Cc1ccccc1)C(=O)O)C1Cc2ccccc2C1 [Example 3, N-[1(S)-ethoxycarbonyl-3-phenylpropyl]-L-alanyl-N-(2-indanyl)glycyl-L-phenylalanine hydrobromide]	67%	73%	77%
CCCCOC(=O)[C@H](CCc1ccccc1)N[C@@H](C)C(=O)N(CC(=O)N[C@@H](Cc1ccccc1)C(=O)O)C1CCCC1.Cl [Example 6, N-[1(S)-butoxycarbonyl-3-phenylpropyl]-L-alanyl-N-cyclopentylglycyl-L-phenylalanine hydrochloride]	72%	84%	72%

Source: patent US4472383A, “Peptide derivatives, their production and use” (Takeda Chemical Industries, Ltd., priority 1982, dated 1984)
